Measured values published in patent US8653022B2, “Use of ghrelin splice variant for treating hypercholesterolemia and/or high cholesterol and/or high cholesterol complication and/or lipemia and/or lipemia complication and/or coronary heart disease and/or weight management and/or diabetes and/or hyperglycemia” (priority 2006, dated 2014).
Ends that are not written are not given here. * marks the point of attachment. Octanoyl = CCCCCCCC(=O)*

Experiments:
[1] = Plasma glucose level after 7 day treatment in 129Sv mice; type: in vivo; conditions: 129 male mice, 7.2 mg/kg peptide, end of study
Description: FIG. 3A is a bar graph showing percentage of plasma glucose reduction after 7 day treatment with acylated ghrelin splice variant peptides (acylated SEQ ID NO:2, SEQ ID NO:3 and SEQ ID NO:4) or ghrelin in 129Sv mice. The percent reduction is 3.2%; 2% and 4.8% respectively while treatment with ghrelin increased plasma glucose level by 1.3%.
FIG. 3B is a bar graph showing plasma glucose levels after 7 day treatment with acylated ghrelin splice variant peptides (acylated SEQ ID NO:2, SEQ ID NO:3 and SEQ ID NO:4) or ghrelin. 129 male mice were treated for seven days with 7.2 mg/kg peptide. Plasma glucose levels were measured at the end of the study.

[2] = Serum cholesterol and lipid levels (cholesterol, triglycerides, LDL, HDL) after subcutaneous administration in 129Sv mice; type: in vivo; conditions: 129Sv male mice, subcutaneous once daily, n=10 per group; for Reduced levels of cholesterol (serum cholesterol concentration): compared to vehicle-administered controls
Description: FIG. 1A is a bar graph showing serum cholesterol concentration after subcutaneous administration of acylated ghrelin splice variant (acylated SEQ ID NO:2) or un-acylated ghrelin splice variant (SEQ ID NO:2) compared to SEQ ID NO:3 and vehicle-administered controls in 129Sv mice. Reduced levels of cholesterol in the acylated ghrelin splice variant (acylated SEQ ID NO:2) and un-acylated ghrelin splice variant (SEQ ID NO:2) treated groups were observed (5% & 6%, respectively).
(§1) Acylated ghrelin splice variant (20 μg; 29 amino acids in length (SEQ ID NO:2)) or the Vehicle (1.6% mannitol) was administered once daily for 14 successive days, via the subcutaneous (SC) route, to groups comprising n=10 129Sv male mice. No mortality occurred in any of the animals throughout the entire study period. […] All animals were subjected to terminal bleeding, under CO2 anesthesia, immediately prior to euthanasia. Terminal blood collection was performed serially as per animal number, and not as per group. • Hematology: Blood samples (at least 100 μl) were collected into pre-labeled EDTA coated tubes. The tubes were pre-labeled and contain the following information:
Study number, group number, animal number and date. The samples were kept until delivery and analysis at 2-8 ° C. Hematology parameters that were tested using Sysmex KX-21™are: WBC, RBC, HGB, HCT, MCV, MCH, MCHC, Platelets. Differential count was preformed manually. • Biochemistry: Blood for biochemistry analysis was collected into non-coated pre-labeled tubes. The tubes were pre-labeled and contained the following information: Study number, group number, animal number and date. Following clotting, the blood from each animal was centrifuged, and the serum was collected into two pre-labeled tubes and submitted for analysis as follows: Serum, 250 μl, was kept at 2-8° C. until analysis. The samples were subjected to the following listed tests using Hitachi 917 system: Creatinine, Total bilirubin, Glucose, Triglycerides, Cholesterol, HDL, LDL, Total protein, Globulin, Albumin, Urea, Potassium, Phosphorus, Calcium, Sodium, Chloride, sGOT, SGPT, ALP. • Urinalysis: Urine was collected into pre-labeled tubes (as above) from all animals (where possible) prior to and/or after euthanasia. For all surviving animals, urine collection was performed serially as per animal number, and not as per group. An attempt was made to attain the maximal amount as possible to perform the tests listed below. Urinalysis is performed using a commercial test stick (Bayer, Multistix® 10SG) applied to urine sample and evaluating the following parameters: glucose, ketone, pH value, leukocytes, blood, density, nitrite, bilirubin, urobilinogen and protein. • Necropsy Procedures and Macroscopic Examination: All animals were subjected to a fully detailed necropsy. For all surviving animals, necropsy was performed serially as per animal number, and not as per group, immediately following the scheduled terminal bleeding. At necropsy, a thorough examination is made and any abnormality or gross pathological changes in tissues and/or organs are observed and recorded. • Organ/Tissue Collection: The organs and tissues listed (Brain, Liver, Kidney, Stomach, Pancreas, Lungs, Spleen, Heart, Epididymal WAT, Retroperitoneal WAT, Interscapular BAT) were excised and weighed wet as soon as possible after excision and removal of the attached fat and other connective tissues. All organs from one animal were collected into one container, pre-labeled with the following information: Study number, group number, animal number and date. • Results: Reduced levels of cholesterol in the acylated ghrelin splice variant and un-acylated ghrelin splice variant treated groups were observed (5% & 6%, respectively; See FIG. 1A). Reduced levels of HDL in the acylated ghrelin splice variant and un-acylated ghrelin splice variant treated groups (5% & 6%, respectively; see FIG. 1B).

[3] = Mortality and clinical signs during subcutaneous administration study; type: in vivo, 129Sv mice; conditions: 20 μg once daily for 14 successive days, 129Sv male mice, n=10
Description: as §1, with “information: […]” for “information:”

[4] = Cumulative body weight gain after once-daily subcutaneous treatment in 129Sv mice; type: in vivo; conditions: male wild-type 129Sv mice, once daily for seven days, 72 mg/kg subcutaneously, n=8 per group
Description: FIG. 2 is a line graph showing cumulative body weight gain of un-acylated ghrelin splice variant-treated (SEQ ID NO:2) 129Sv mice compared to vehicle-treated controls. Un-acylated ghrelin splice variant reduces body weight gain in male wild-type mice (n=8 per group). In mice treated once daily for seven days with un-acylated ghrelin splice variant (72 mg/kg, subcutaneously), cumulative weight gain of the SEQ ID NO:2 group was 25% times less than the vehicle-injected control animals.

GSSFLSPEHQRVQVRPPHKAPHVV (also: acylated (site not given here); listed as Homo sapiens) [SEQ ID NO:4, acylated 24 amino acid human ghrelin splice variant]
Percentage of plasma glucose reduction [1]: 4.8%

GSSFLSPEHQRVQVRPPHKAPHVVPALPL (not fully specified; listed as Homo sapiens) [acylated SEQ ID NO:2, 29 amino acid human ghrelin splice variant, acylated]
Increased levels of triglycerides ([2]; compared to vehicle): 9% | LDL levels (in words) ([2]; compared to vehicle): remained unchanged | Reduced levels of HDL ([2]; compared to vehicle, listed as acylated ghrelin splice variant): 5% | Reduced levels of cholesterol (serum cholesterol concentration) ([2]; listed as acylated ghrelin splice variant): 5% | Clinical signs [3]: No clinical signs | Mortality [3]: No mortality | Percentage of plasma glucose reduction [1]: 3.2%

ghrelin: polypeptide of GenBank NP_057446; mature 28 amino acid peptide bearing n-octanoyl on the third serine (GSS(Octanoyl)FLSPEHQRVQQRKESKKPPAKLQPR; UniProt Q9UBU3 24-51, looked up) [reference compound]
Increase of plasma glucose level [1]: 1.3%

GSS (CO-C7H15) FLSPEHQRVQVRPPHKAPH (GSS(Octanoyl)FLSPEHQRVQVRPPHKAPH; listed as Homo sapiens) [SEQ ID NO:3, 22 amino acid human ghrelin splice variant, acylated]
Increased levels of triglycerides ([2]; compared to vehicle): 15% | Percentage of plasma glucose reduction [1]: 2%

GSSFLSPEHQRVQVRPPHKAPHVVPALPL (listed as Homo sapiens) [un-acylated ghrelin splice variant, 29 amino acid human ghrelin splice variant, un-acylated]
Level of triglycerides (in words) ([2]; compared to vehicle): remained unchanged | Reduced levels of HDL ([2]; compared to vehicle): 6% | Reduced levels of cholesterol (serum cholesterol concentration) [2]: 6% | Cumulative weight gain less than the vehicle-injected control animals [4]: 25%
